Data as given in ChEMBL document CHEMBL4145621, “4-Substituted Benzenesulfonamides Incorporating Bi/Tricyclic Moieties Act as Potent and Isoform-Selective Carbonic Anhydrase II/IX Inhibitors” (J Med Chem, 2018).
pKi: −log10 of the molar value.

Experiments:
Carbonic anhydrase 9 = Carbonic anhydrase 9 (Homo sapiens, UniProt Q16790); experiment: Inhibition of recombinant human CA9 preincubated for 15 mins by phenol red dye-based stopped-flow CO2 hydration assay
Carbonic anhydrase 1 = Carbonic anhydrase 1 (Homo sapiens, UniProt P00915); experiment: Inhibition of recombinant human cytosolic CA1 preincubated for 15 mins by phenol red dye-based stopped-flow CO2 hydration assay
Carbonic anhydrase 1, sequence (P00915 whole entry): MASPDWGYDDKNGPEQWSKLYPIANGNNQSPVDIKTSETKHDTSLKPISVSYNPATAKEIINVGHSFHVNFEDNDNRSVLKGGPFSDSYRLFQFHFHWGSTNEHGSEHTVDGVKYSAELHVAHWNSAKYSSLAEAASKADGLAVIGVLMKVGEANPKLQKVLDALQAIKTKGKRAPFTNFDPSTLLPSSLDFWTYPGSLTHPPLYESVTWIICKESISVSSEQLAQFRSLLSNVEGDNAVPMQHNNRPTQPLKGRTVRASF

SMILES	pKi (Carbonic anhydrase 9)	pKi (Carbonic anhydrase 1)
CC1(C)CC(=O)c2cnc(Nc3ccc(S(N)(=O)=O)cc3)nc2C1	9.05	–
NS(=O)(=O)c1ccc(-n2ncc3c2CC(c2ccccc2)CC3=O)cc1 (stereo not given)	9.14	–
NS(=O)(=O)c1ccc(-n2ncc3c2-c2cncnc2CC3)cc1	9.24	–
NS(=O)(=O)c1ccc(Nc2ncc3c(n2)CC(c2ccccc2)CC3=O)cc1 (stereo not given)	9.10	–
NS(=O)(=O)c1ccc(-n2ncc3c2CCCC3=O)cc1	8.28	–
NS(=O)(=O)c1ccc(Nc2ncc3c(n2)CCCC3=O)cc1	9.26	–
CC1(C)CC(=O)c2cnn(-c3ccc(S(N)(=O)=O)cc3)c2C1	9.06	–
NS(=O)(=O)c1ccc(-n2ncc3c2-c2cnc(-c4ccccc4)nc2CC3)cc1	8.14	< 5.00
Cc1ncc2c(n1)CCc1cnn(-c3ccc(S(N)(=O)=O)cc3)c1-2	8.15	–
